Experimental data: US7238830B2, “N-alkylaspartyl dipeptide ester compounds” (Ajinomoto Co., Inc., priority 1998, dated 2007)
Where two headings read alike, the source gives them in different places. Peptide text beside a SMILES is read from it.

Assays:
[1] = reported in WO 94/11391, compared to 2%, 5% and 10% sucrose solutions, cited from earlier work
[2] = Sensory evaluation of sweetness (sweetening potency) relative to sucrose; conditions: for Sweetness (sweetening potency): sensory evaluation; for sweetness potency: values compared to sweetening potency of a 4% aqueous solution of sucrose
Description: For example, the sweetness of N-[N-[3-(3-hydroxy-4-methoxyphenyl)-3-methylbutyl]-L-α-aspartyl]-L-phenylalanine 1-methyl ester was approximately 70000 times that of sugar, the sweetness of N-[N-[3-(3-methyl-4 hydroxyphenyl)-3-methylbutyl]-L-α-aspartyl]-L-phenylalanine 1-methyl ester was approximately 70000 times that of sugar, the sweetness of N-[N-[3-(3-hydroxy-4-methylphenyl)-3-methylbutyl]-L-α- aspartyl]-L-phenylalanine 1-methyl ester was approximately 60000 times that of sugar, and the sweetness of N-[N-((RS)-3-(3 hydroxy-4-methoxyphenyl) butyl]-L-α-aspartyl]-L-phenylalanine 1-methyl ester was approximately 50000 times that of sugar. […] Sensory evaluations can be performed as described in, for example, B. T. Carr, S. D. Pecore, K. M. Gibes and G. E. Dubois, “Sensory Methods for Sweetner Evaluation” in Flavor Measurement, edited by C. T. Ho and C. H. Manley, Marcel Decker, Inc. (1992).

physchem = format: physicochemical

Structure (SMILES) | sweetening potency [1] | sweetness potency [2] | half life in a buffer (physchem) | also measured
COC(=O)[C@H](Cc1ccccc1)NC(=O)[C@H](CC(=O)O)NC(C)CCc1ccc(O)c(OC)c1 (mixture of isomers) [N-[N-[3-(3-methoxy-4-hydroxyphenyl)(RS)-1-methylpropyl]-L-α-aspartyl]-L-phenylalanine 1-methylester] | 500 times that of sucrose | – | – | –
COC(=O)[C@H](Cc1ccccc1)NC(=O)[C@H](CC(=O)O)NCCCc1ccc(O)c(OC)c1 [N-[N-(3-(3-methoxy-4-hydroxyphenylpropyl)-L-α-aspartyl]-L-phenylalanine 1-methyl ester] | 2500 times that of sucrose | – | – | –
COC(=O)[C@H](Cc1ccccc1)NC(=O)[C@H](CC(=O)O)NCCC(C)(C)c1ccc(O)cc1 [Compound 8, N-[N-[3-(4-hydroxyphenyl)-3-methylbutyl]-L-α-aspartyl]-L-phenylalanine 1 methyl ester] | – | 25000 | 43.6 h | Sweetness (sweetening potency) [2]: 25000 times the sweetness of sugar
COC(=O)[C@H](Cc1ccccc1)NC(=O)[C@H](CC(=O)O)NCCC(C)(C)C [N-[N-(3,3-dimethylbutyl)-L-α-aspartyl]-L-phenylalanine 1-methyl ester, reference compound] | 10,000 times that of sucrose | – | – | sweetening potency ([1]; listed as N-[N-(3,3-dimethylbutyl)-L-α-aspartyl]-L-phenylalanine 1-methylester): 10000 times that of sucrose
COC(=O)[C@H](Cc1ccccc1)NC(=O)[C@H](CC(=O)O)NCCCc1ccccc1 [N-[N-(3-phenylpropyl)-L-(α-aspartyl]-L-phenylalanine 1-methyl ester] | 1500 times that of sucrose | – | – | –
COC(=O)[C@H](Cc1ccccc1)NC(=O)[C@H](CC(=O)O)NCCC(C)(C)c1ccc(O)c(OC)c1 [Compound 9, N-[N-[3-(3-methoxy-4-hydroxyphenyl)-3-methylbutyl]-L-α-aspartyl)-L-phenylalanine 1 methyl ester] | – | 40000 | 34.4 h | Sweetness (sweetening potency) [2]: 40000 times the sweetness of sugar
COC(=O)[C@H](Cc1ccccc1)NC(=O)[C@@H](N)CC(=O)O [aspartame, reference compound] (H-Asp-Phe-OMe) | – | – | – | half-life (physchem; buffer, pH 3): 23.5 h
COC(=O)[C@H](Cc1ccc(O)cc1)NC(=O)[C@H](CC(=O)O)NCCC(C)(C)C [N-[N-(3,3-dimethylbutyl)-L-α-aspartyl]-L-tyrosine 1-methyl ester] | 4,000 times that of sucrose | – | – | sweetening potency ([1]; listed as N-[N-(3,3-dimethylbutyl)-L-α-aspartyl]-L-tyrosine 1-methylester): 4000 times that of sucrose
COC(=O)[C@H](Cc1ccccc1)NC(=O)[C@H](CC(=O)O)NCCC(C)(C)c1ccc(OC)c(O)c1 [Compound 10, N-[N-[3-(3-hydroxy-4-methoxyphenyl)-3-methylbutyl]-L-α-aspartyl]-L-phenylalanine 1-methyl ester] | – | 70000 | 44.5 h | Sweetness (sweetening potency) ([2]; listed as Example 1): 70000 times the sweetness of sugar
